Assay results published in ChEMBL document CHEMBL5726001, “Compounds for use in preparing heterocyclic triazole agonists of the APJ receptor” (2018).

Target: T1, Apelin receptor (Homo sapiens, UniProt P35414)
T1 sequence (P35414 whole entry): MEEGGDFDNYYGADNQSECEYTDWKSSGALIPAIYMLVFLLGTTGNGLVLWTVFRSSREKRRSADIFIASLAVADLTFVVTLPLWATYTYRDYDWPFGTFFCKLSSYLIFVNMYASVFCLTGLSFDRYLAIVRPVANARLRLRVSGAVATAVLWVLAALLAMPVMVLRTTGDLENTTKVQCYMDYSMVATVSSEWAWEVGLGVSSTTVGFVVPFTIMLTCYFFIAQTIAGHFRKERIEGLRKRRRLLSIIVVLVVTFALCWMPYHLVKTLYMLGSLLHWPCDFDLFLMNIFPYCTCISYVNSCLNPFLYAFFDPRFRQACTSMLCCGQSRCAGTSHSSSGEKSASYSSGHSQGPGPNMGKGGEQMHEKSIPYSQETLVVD
Test: [35S]GTPgammaS Binding: The human APJ receptor was cloned by polymerase chain reaction and the gene encoding the receptor was subcloned in pFLAG-CMV-3 expression vector (Sigma, Saint Louis, Mo. USA) in-house at Amgen. A GTPγS binding assay was performed on membranes prepared from CHO cells stably expressing human APJ receptor. The optimum experimental conditions for the concentrations of GDP, MgCl2, and NaCl in the assay buffer were initially determined. The assay was performed in assay buffer [20 mM HEPES, pH 7.5, 5 mM MgCl2, and 0.1% (w/v) BSA with 200 mM NaCl, 3 μM GDP] and membranes expressing human APJ receptor/well along with WGA PS beads. The reaction was initiated by addition of 0.2 nM [35S]GTPγS (Perkin Elmer Life and Analytical Sciences, Waltham USA) in the absence or presence of various ligands and incubated at RT for 90 min. Nonspecific binding was determined in the presence of 100 μM GTPγS and was always less than 0.2% of total binding. All the results presented are means of several independent experiments and analyzed by non-linear regression methods using commercially available program Prism (GraphPad, San Diego, Calif.).

Row | SMILES | EC50 [nM]
1 | COc1ncnc(OC)c1-n1c(NS(=O)(=O)[C@@H](C)[C@H](C)c2ncc(Cl)cn2)nnc1C1COC1 | 730
2 | COc1cccc(OC)c1-n1c(NS(=O)(=O)[C@@H](C)[C@@H](OC(C)C)c2ncc(C)cn2)nnc1[C@H]1COCCO1 | 16
3 | CO[C@H]1CCC[C@@H](OC)[C@@H]1n1c(NS(=O)(=O)[C@@H](C)[C@H](C)c2ncc(C)cn2)nnc1C1CCCO1 (single isomer, unassigned) | 240
